In US20110201688A1, “N,N'-DI-P-BROMOPHENYL GUANIDINE TREATMENT FOR STROKE AT DELAYED TIMEPOINTS” (UNIVERSITY OF SOUTH FLORIDA, priority 2008, published 2011):

Assays:
cortical neurons [1] = test: Inhibition of [Ca2+]i increases evoked by chemical ischemia (sodium azide/glucose deprivation) in cortical neurons, Fura-2; format: cell-based, rat; conditions: for More effective than DTG in depressing Ca2+ dysregulation: ischemia-induced [Ca2+]i, relative to DTG set to 1
Method: Concentration-response relationship for p-Br-DPG inhibition of [Ca^2+]i increases evoked by chemical ischemia (4 mM azide, 0 glucose). […] Dashed line is fit to the data in FIG. 7, shoing p-Br-DPhG inhibition of acidosis-induced Ca^2+ elevations and is included for comparison.
(§1) The effects of sigma receptors on ischemia-induced changes in intracellular calcium concentrations were studied in cultured cortical neurons from embryonic (E18) rats. Dams were euthanatized by decapitation, uterus removed, and embryos dissected out and placed in isotonic buffer containing 137 mM NaCl, 5 mM KCl, 0.2 mM NaH2PO4, 0.2 mM KH2PO4, 5.5 mM glucose, 6 mM sucrose (pH 7.4 with NaOH). Cortex were excised and minced, and tissue digested in isotonic buffer containing 0.25% trypsin/EDTA for 10 min at 37° C. and added to 3× volume of high glucose culture media (Dulbecco's Modified Eagle Media; Invitrogen, Inc., Carlsbad, Calif.), 10% (v/v) fetal calf serum, 100 U/ml penicillin and 0.1 mg/ml streptomycin. Cells were counted on a hemocytometer, plated (0.5×10^6 cells) on 18 mm coverslips coated with poly-1-lysine, and incubated at 37° C. under a 95% air, 5% CO2 atmosphere. After 24 hr the media was replaced with Neurobasal (Invitrogen, Inc., Carlsbad, Calif.) medium supplemented with B27 (Invitrogen, Inc., Carlsbad, Calif.) and 0.5 mM 1-glutamine to limit astrocyte proliferation in the cultures. Cells were used for studies after 14-21 days in culture.
The in vitro NaN3 chemical ischemia disrupts cell metabolism, which ultimately results in plasma membrane dysfunction and intracellular Ca^2+ dysregulation. Fura-2 dye was used to measure changes in intracellular Ca^2+ in the cells. Ischemia was induced in the absence or presence of the drugs to test directly the cell response to sigma receptor activation under ischemic conditions. […] The level of resulting [Ca^2+]i inhibition was compared to DTG, which was set to a relative [Ca^2+]i, level of 1 as indicated by the dashed line. […]

cortical neurons [2] = test: Inhibition of [Ca2+]i increases evoked by acidosis (pH 6.0) in cortical neurons; format: cell-based, rat; conditions: acidosis pH 6.0, cortical neurons; for Kd: n>50, read-out: Kd (Langmuir-Hill fit) for inhibition of [Ca2+]i increases evoked by acidosis
Method: Concentration-response relationship for p-Br-DPG and DTG inhibition of [Ca^2+]i increases evoked by acidosis (pH 6.0).
as §1
(Ringel F, et al. Lactacidosis-induced glial cell swelling depends on extracellular Ca^2+. Neurosci Lett. 2006 May 8; 398(3):306-9. Epub 2006 Feb. 15). p-Br-DPG was characterized against DTG to determine the ability to inhibit [Ca^2+]i dysregulation in cortical neurons. Cells were administered the indicated amounts of either p-BrDPhG or DTG, followed by cellular [Ca^2+]i dysregulation stimulation by acidosis (pH 6.0). […] A dashed line is superimposed, showing the acidosis results from FIG. 7 for comparison.

MCAO rats = conditions: cited from earlier work
Microglia = test: Microglial migration to ATP in Boyden chamber; format: cell-based; conditions: 4 hrs at 37° C.
Method: FIG. 10 is a graph showing microglial migration for 4 hrs at 37° C. Control media or 100 μM ATP were used in the absence and presence of DTG or p-Br-DPG (labeled BDTG). Asterisks indicate a significant difference between ATP (p<0.001, n=5) and ATP+BDTG 20 μM (p<0.01, n=5) from DMEM. Significance was determined by one-way ANOVA followed by post-hoc Bonferroni tests.
Microglial migration was assayed using a Boyden chamber fitted with a polycarbonate membrane containing 8 μm pores. Microglia (500,000 cells) were placed in the upper chamber and control media or 100 μM ATP were added in the absence and presence of DTG, or various indicated concentrations of p-Br-DPG to the bottom chamber. Microglia were allowed to migrate for 4 hrs at 37° C., and were subsequently stained with DAPI and counted.

Sprague-Dawley rats = test: Permanent middle cerebral artery occlusion (MCAO), infarct volume by Fluoro-Jade staining; format: in vivo, rat; conditions: sacrificed at 96 h
Method: FIG. 9 is a graph showing the data for rats after surgery for permanent middle cerebral arterial occlusion. Rats were treated as indicated at 24, 48, and 72 h and sacrificed at 96 hours. Brain sections were stained with Fluoro-Jade to determine infarct volumes.
11 adult male Sprague-Dawley rats (Harlan, Indianapolis, Ind.) weighing 300 to 350 g were housed in a climate controlled room with water and laboratory chow available ad libidum. Sprague-Dawley rats (300-350 g) were randomly assigned to 1 of 3 groups: MCAO (n=4); MCAO and DTG (n=3); or MCAO and p-Br-DPG (n=4). MCAO surgery was performed as previously reported by Vendrame et al. (Vendrame, et al., Infusion of human umbilical cord blood cells in a rat model of stroke dose-dependently rescues behavioral deficits and reduces infarct volume. Stroke. 2004 October; 35(10):2390-5. Epub 2004 Aug. 19) and originally described by Longa et al. (Longa, et al., Reversible middle cerebral artery occlusion without craniectomy in rats. Stroke. 1989 January; 20(1):84-9). […]
Rats were treated as indicated at 24, 48, and 72 hours after MCAO with vehicle (MCAO), 7.5 mg/kg N,N′-di-p-bromophenyl guanidine (p-Br-DPG) or 7.5 mg/kg 1,3 di-o-tolylguanidine (DTG). […] Stroke-induced damage was quantified using the Fluoro-Jade fluorescence to determine infarct volumes.

[3] = higher p-Br-DPG concentrations or DTG with 100 μM ATP

| Compound | More effective than DTG in depressing Ca2+ dysregulation (cortical neurons [1]) [%] | Kd (cortical neurons [2]) [µM] | Reduction of infarct size (MCAO rats; MCAO rats (Ajmo 2006)) | Reduction of stroke damage (MCAO rats; administered 24 hours after experimental stroke) [%] | Microglia migration (Microglia; [3]) | Effect against [Ca2+]i dysregulation compared with DTG (cortical neurons [2]) | Microglia migration (Microglia; 20 μM with 100 μM ATP, compared to DMEM) | Infarct volume relative to the MCAO group (Sprague-Dawley rats; 7.5 mg/kg at 24, 48 and 72 h after MCAO, p<0.001) | Efficacy on infarct volume compared with DTG treatment (Sprague-Dawley rats; 7.5 mg/kg each at 24, 48 and 72 h after MCAO) | Kd (cortical neurons [1]; 4 mM azide, 0 glucose, cortical neurons, n>50, read-out: Kd (Langmuir-Hill fit) for inhibition of [Ca2+]i increases evoked by chemical ischemia) [µM] |
| --- | --- | --- | --- | --- | --- | --- | --- | --- | --- | --- |
| NC(=Nc1ccccc1)Nc1ccccc1 [DPhG] | ~25 | – | – | – | – | – | – | – | – | – |
| Cc1ccccc1NC(=N)Nc1ccccc1C [DTG, N,N′-di-o-tolyl guanidine, reference compound] | – | 109 | more than 80% | 85 | inhibited the migration | – | – | – | – | – |
| N=C(Nc1ccc(Br)cc1)Nc1ccc(Br)cc1 [p-Br-DPG, N,N′-di-p-bromophenyl guanidine] | ~25 | 13.5 | – | – | inhibited the migration | significantly higher effect against [Ca^2+]i than DTG | significantly increased microglia migration | significantly reduced infarct volume | slightly more efficacious than DTG treatment | 2.6 |
